Source: patent US10987372B2, “Anti-hepatoma-virus agent” (KAGOSHIMA UNIVERSITY, priority 2016, dated 2021)

What was measured:
[1] = test system: HBV; assay: Determination of anti-HBV activity: HBV DNA by quantitative PCR in HepG2.2.15 cells; format: cell-based; conditions: for anti-HBV activity (intracellular HBV DNA amount): 1 μM, culture for 7 days, quantitative PCR (FIG. 3)
Method: FIG. 3 is a graph showing anti-HBV activity levels of purine antimetabolites. HepG2.2.15 cells were seeded at a concentration of 1×10^5 cells/well. Then, 24 hours later, purine antimetabolites (clofarabine, cladribine, and fludarabine) and entecavir (ETV) were each diluted to result in a final concentration of 1 μM and each dilution was added to cells. After culture for 7 days, the cytoplasmic fraction was collected and DNA was purified by phenol-chloroform extraction. The intracellular HBV DNA amount was evaluated by quantitative PCR using 20 ng of purified DNA.
FIG. 5 is a graph showing anti-HBV activity of clofarabine. HepG2.2.15 cells were seeded at a concentration of 1×10^5 cells/well. Then, 24 hour later, clofarabine was diluted to result in concentrations of 0, 0.97, 1.95, 3.90, 7.81, 15.6, 31.3, 62.5, 125, 250, 500, and 1000 nM and each dilution was added to cells. After culture for 7 days, the cytoplasmic fraction was collected and DNA was purified by phenol-chloroform extraction. The intracellular HBV DNA amount was evaluated by quantitative PCR using 20 ng of purified DNA.
Anti-HBV activity was evaluated by quantitative PCR for determining the amount of HBV DNA in cells or HBV DNA in the culture supernatant on day 7 after the addition of the agent using the HepG2.2.15 cell line of HBV-producing cells obtained by introducing a gene having a length twice that of the HBV genome into the human liver cancer cell line HepG2. For PCR of HBV DNA, a forward primer (HBV-S190F; 5′-GCT CGT GTT ACA GGC GGG-3′: SEQ ID NO: 1) and a reverse primer (HBV-S703R; 5′-GAACCACTGAACAAATGGCACTAGTA-3′: SEQ ID NO: 2) were used. PCR was performed by carrying out a reaction at 95° C. for 10 sec, 62° C. for 10 sec, and 72° C. for 30 sec for 35 cycles.
For screening of the anti-HBV agent, the HepG2.2.15 line obtained by introducing the HBV gene into HepG2 cells of a human cancer cell line was used (Production of hepatitis B virus particles in HepG2 cells transfected with cloned hepatitis B virus DNA. Sells M A, Chen M L, and Acs G., Proc. Natl. Acad. Sci. USA 84: 1005-1009 (1987)). […]

[2] = test system: HCV; assay: Evaluation of anti-HCV activity: Renilla luciferase HCV RNA replication reporter in OR6 cells; format: cell-based; conditions: 1 μM, culture for 3 days (FIG. 4)
Method: FIG. 4 is a graph showing anti-HCV activity levels of purine antimetabolites. OR6 cells were seeded at a concentration of 1.5×10^4 cells/well. Then, 24 hours later, purine antimetabolites were each diluted to result in a final concentration of 1 μM and each dilution was added to cells. After culture for 3 days, cells were collected to determine Renilla luciferase activity.
FIG. 7 is a graph showing anti-HCV activity of clofarabine. OR6 cells were seeded at a concentration of 1.5×10^4 cells/well. Then, 24 hour later, clofarabine was diluted to result in concentrations of 0, 15.6, 31.3, 62.5, 125, 250, 500, and 1000 nM and each dilution was added to cells. After culture for 3 days, cells were collected to determine Renilla luciferase activity.
Anti-HCV activity was evaluated using OR6 cells from the human liver cancer cell line HuH-7 and ORL8 cells from the human liver cancer cell line Li23. Since the Renilla Luciferase gene has been incorporated into the genome of the genotype-1b O strain in OR6 cells and ORL8 cells, it is possible to conveniently and accurately evaluate the level of HCV RNA replication by determining the Renilla Luciferase activity. Each agent was added to OR6 cells or ORL8 cells, the cells were recovered on day 3, and the Renilla Luciferase activity was determined. […]

[3] = test system: leukemia; conditions: clinical use for leukemia; cited from earlier work

Nc1nc(Cl)nc2c1ncn2[C@H]1C[C@H](O)[C@@H](CO)O1 [cladribine, 2-chloro-9-(2-deoxy-β-D-arabinofuranosyl)adenine]
anti-HBV activity (intracellular HBV DNA amount) [1]: does not have anti-HBV activity
anti-HCV activity (Renilla luciferase activity) [2]: has anti-HCV activity

Nc1nc(Cl)nc2c1ncn2[C@@H]1O[C@H](CO)[C@@H](O)[C@@H]1F [clofarabine, 2-chloro-9-(2-deoxy-2-fluoro-β-D-arabinofuranosyl)adenine]
anti-HBV activity (intracellular HBV DNA amount) [1]: comparable to that of entecavir
concentration at which anti-HBV activity is exhibited ([1]; 7 days (FIG. 5)): about 20 nM
anti-HCV activity (Renilla luciferase activity) [2]: comparable to that of sofosbuvir
effective blood level for leukemia [3]: about 2 μM
